Assay results: patent publication US7754228B2, “Cytotoxic T-cell epitopes from Chlamydia” (Novartis Vaccines and Diagnostics, Srl, priority 2002, dated 2010)
“Also recorded” adds a separate entry of the source. Where two headings read alike, the source gives them in different places.

Test system: HLA A2
Format: binding, human
Conditions: for binding to HLA A2 (in words): in vitro binding assay
[1] = 100 μM peptide, RMA-S/A2 cells, peptide and only anti-mouse secondary antibody, FACS mean
[2] = 100 μM peptide, RMA-S/A2 cells, peptide, anti-A2 Mab BB7.2 and secondary antibody, FACS mean
[3] = 1 μM peptide, RMA-S/A2 cells, peptide and only anti-mouse secondary antibody, FACS mean
[4] = 1 μM peptide, RMA-S/A2 cells, peptide, anti-A2 Mab BB7.2 and secondary antibody, FACS mean
[5] = 10 μM peptide, RMA-S/A2 cells, peptide and only anti-mouse secondary antibody, FACS mean
[6] = 10 μM peptide, RMA-S/A2 cells, peptide, anti-A2 Mab BB7.2 and secondary antibody, FACS mean

| Sequence | High - B | Δ Mean | Mean 1 [1] | Mean 2 [2] | binding to HLA A2 (in words) (RMA-S/A2 cells) | Mean 1 [3] | Mean 2 [4] | Mean 1 [5] | Mean 2 [6] | ΔMean at high concentrations of peptide (in words) (high peptide concentrations, non-homogeneous fluorescent signal, most likely non-specific effects) | rank in the binding assay among five epitopes predicted in protein 4376601 (CH44 to CH48) | Mean 1 | Mean 2 |
| --- | --- | --- | --- | --- | --- | --- | --- | --- | --- | --- | --- | --- | --- |
| ALMLLNNYV (listed as Chlamydia pneumoniae) [CH20] | 138 | 384 | 194 | 578 | bind to HLA A2 | – | – | – | – | – | – | – | – |
| ALWGHNVLL (listed as Chlamydia pneumoniae) [CH55] | 98 | 258 | 153 | 411 | bind to HLA A2; also recorded: positive in the binding assay | – | – | – | – | – | – | – | – |
| ALWKENQAL (listed as Chlamydia pneumoniae) [CH54] | 91 | 251 | 140 | – | bind to HLA A2; also recorded: positive in the binding assay | – | – | – | – | – | – | – | – |
| FLFQLGMQI [CH62] | 19 | 179 | 126 | 305 | – | – | – | – | – | – | – | – | – |
| FLQRGESFV [CH30] | 89 | 243 | 155 | 398 | bind to HLA A2 | – | – | – | – | – | – | – | – |
| FLTLAWWFI [CH8] | 82 | 328 | – | – | bind to HLA A2 | 204 | 532 | – | – | – | – | – | – |
| FVSKFWFSL [CH57] | −17 | – | – | – | – | 127 | 270 | – | – | – | – | – | – |
| IALLVIFFV [CH18] | 0 | 230 | – | – | do not seem to bind | – | – | 198 | 428 | – | – | – | – |
| ILLNEVPYV [CH2] | 133 | 372 | – | – | bind to HLA A2 | – | – | 264 | 636 | – | – | – | – |
| ILQEAEQMV [CH17] | 140 | 386 | 185 | 571 | bind to HLA A2 | – | – | – | – | – | – | – | – |
| ILSFLPWLV [CH35] | 86 | 240 | – | – | bind to HLA A2 | – | – | 171 | 411 | – | – | – | – |
| KLLAFPAFA [CH40] | 96 | 341 | 214 | 555 | bind to HLA A2 | – | – | – | – | – | – | – | – |
| KLLKDHFDL (listed as Chlamydia pneumoniae) [CH34] | 81 | 235 | 155 | 390 | bind to HLA A2 | – | – | – | – | – | – | – | – |
| KLSEQLEAL [CH41] | 101 | 261 | 162 | 423 | bind to HLA A2; also recorded: positive in the binding assay | – | – | – | – | – | – | – | – |
| KLWEWLGYL [CH32] | 63 | 217 | – | – | bind to HLA A2 | – | – | 161 | 378 | – | – | – | – |
| KMSHFQQAL [CH49] | 23 | 183 | 134 | 317 | – | – | – | – | – | – | – | – | – |
| KVLLGQEWV [CH42] | 40 | 200 | 136 | 336 | bind to HLA A2 | – | – | – | – | – | – | – | – |
| LIQETLLFV [CH24] | 75 | 229 | 165 | 394 | bind to HLA A2 | – | – | – | – | – | – | – | – |
| LLLIFNNYL [CH36] | −16 | 138 | – | – | do not seem to bind | 163 | 301 | – | – | – | – | – | – |
| LLLTLGYAV (listed as Chlamydia pneumoniae) [CH19] | 0 | 240 | 196 | 436 | do not seem to bind | – | – | – | – | – | – | – | – |
| LLMLAISLV [CH33] | 0 | 154 | – | – | do not seem to bind | 164 | 318 | – | – | – | – | – | – |
| NLAEQVTAL [CH43] | – | 286 | 153 | 439 | bind to HLA A2; also recorded: positive in the binding assay | – | – | – | – | – | – | – | – |
| NLAGGILSV (listed as Chlamydia pneumoniae) [CH56] | 80 | 240 | 143 | 383 | bind to HLA A2; also recorded: positive in the binding assay | – | – | – | – | – | – | – | – |
| NLLKRWQFV [CH38] | 73 | 227 | 170 | 397 | bind to HLA A2 | – | – | – | – | – | – | – | – |
| NLSISVFLL [CH46] | 12 | 172 | 131 | 303 | – | – | – | – | – | – | – | – | – |

| Sequence | High - B | Δ Mean | Mean 1 [1] | Mean 2 [2] | binding to HLA A2 (in words) (RMA-S/A2 cells) | Mean 1 [3] | Mean 2 [4] | Mean 1 [5] | Mean 2 [6] | ΔMean at high concentrations of peptide (in words) (high peptide concentrations, non-homogeneous fluorescent signal, most likely non-specific effects) | rank in the binding assay among five epitopes predicted in protein 4376601 (CH44 to CH48) | Mean 1 | Mean 2 |
| --- | --- | --- | --- | --- | --- | --- | --- | --- | --- | --- | --- | --- | --- |
| NLSRQAFFA (listed as Chlamydia pneumoniae) [CH51] | 19 | 179 | 132 | 311 | – | – | – | – | – | – | – | – | – |
| NLWSHYTDL (listed as Chlamydia pneumoniae) [CH53] | 48 | 209 | 141 | 350 | bind to HLA A2 | – | – | – | – | – | – | – | – |
| QLLDEGKEL [CH1] | 37 | 283 | 206 | 489 | bind to HLA A2 | – | – | – | – | – | – | – | – |
| QLLESLAPL [CH4] | 58 | 304 | 212 | 516 | bind to HLA A2 | – | – | – | – | – | – | – | – |
| RLLEIIWGV [CH28] | 78 | 232 | – | – | bind to HLA A2 | – | – | 158 | 390 | – | – | – | – |
| SILELLQFV [CH5] | 71 | 298 | – | – | bind to HLA A2 | – | – | 179 | 477 | – | – | – | – |
| SLCAQSSYV (listed as Chlamydia pneumoniae) [CH50] | 91 | 251 | 130 | 381 | bind to HLA A2; also recorded: positive in the binding assay | – | – | – | – | – | – | – | – |
| SLLEEHPVV (listed as Chlamydia pneumoniae) [CH52] | 89 | 249 | 147 | 396 | bind to HLA A2; also recorded: positive in the binding assay | – | – | – | – | – | – | – | – |
| TLWGSFVDV (listed as Chlamydia pneumoniae) [CH21] | 121 | 275 | 165 | 440 | bind to HLA A2 | – | – | – | – | – | – | – | – |
| VIQAFGDFV [CH47] | 17 | 177 | – | – | – | – | – | 125 | 302 | – | – | – | – |
| VLFLLIRSV [CH61] | −37 | 123 | – | – | – | 135 | 258 | – | – | – | – | – | – |
| VLNLFFSAL (listed as Chlamydia pneumoniae) [CH3] | 0 | 224 | – | – | – | 195 | 419 | – | – | Very low ΔMean values | – | – | – |
| VMLFIGLGV [CH60] | −27 | 133 | – | – | – | – | – | 148 | 281 | – | – | – | – |
| VMLIFEKKV [CH14] | 12 | 258 | 197 | 455 | do not seem to bind | – | – | – | – | – | – | – | – |
| VQLAYVFDV (listed as Chlamydia pneumoniae) [CH16] | 0 | 232 | 201 | 433 | do not seem to bind | – | – | – | – | – | – | – | – |
| WLFDLRFSV (listed as Chlamydia pneumoniae) [CH22] | 73 | 227 | – | – | bind to HLA A2 | – | – | 163 | 390 | – | – | – | – |
| WLLRDDWLL [CH31] | 89 | 243 | 165 | 408 | bind to HLA A2 | – | – | – | – | – | – | – | – |
| WLVFFNPFV [CH12] | 0 | 211 | – | – | do not seem to bind | 204 | 415 | – | – | – | – | – | – |
| WMMGVVLMI [CH45] | 51 | 211 | – | – | bind to HLA A2 | – | – | 147 | 358 | – | – | – | – |
| YLALDPDSV [CH48] | – | 303 | 148 | 451 | bind to HLA A2; also recorded: positive in the binding assay | – | – | – | – | – | strongest epitope using the binding assay | – | – |
| YLIVFVLTI [CH59] | −37 | 123 | – | – | – | – | – | – | – | – | – | 150 | 273 |
| YLLDFRWPL [CH37] | 84 | 238 | – | – | bind to HLA A2 | – | – | 164 | 402 | – | – | – | – |
| YLMQKLQNV [CH29] | 111 | 265 | 153 | 418 | bind to HLA A2 | – | – | – | – | – | – | – | – |
| YLTSYSPYV (listed as Chlamydia pneumoniae) [CH15] | 76 | 322 | 235 | 557 | bind to HLA A2 | – | – | – | – | – | – | – | – |
| YVVGFIIFL [CH44] | 31 | 191 | – | – | – | – | – | 150 | 341 | – | – | – | – |
